Assay results: ChEMBL document CHEMBL5154687, “Intramolecular hydrogen bond interruption and scaffold hopping of TMC-5 led to 2-(4-alkoxy-3-cyanophenyl)pyrimidine-4/5-carboxylic acids and 6-(4-alkoxy-3-cyanophenyl)-1,2-dihydro-3H-pyrazolo[3,4-d]pyrimidin-3-ones as potent pyrimidine-based xanthine oxidase inhibitors” (Eur J Med Chem, 2022)
pIC50, pKi: −log10 of the molar value. Calls of active or inactive are those of the source. No cut-off for these calls is given here.

Assays:
Rattus norvegicus = test: Hypouricemic activity in overnight-fasted Sprague-Dawley rat model of Potassium oxonate-induced acute hyperuricemia assessed as decrease in serum uric acid at 10 mg/kg, po administered after potassium oxonate treatment and measured up to 5 hrs relative to control; assay type: functional, organism-based
[1] = molecular target: T1, Xanthine dehydrogenase/oxidase (Homo sapiens, UniProt P47989); test: Mixed-type inhibition of xanthine oxidase (unknown origin) assessed as Inhibitor dissociation constant using xanthine as substrate incubated for 15 mins followed by substrate addition by UV spectrophotometric analysis; details: read-out: Kis
[2] = molecular target: T1, Xanthine dehydrogenase/oxidase
Description: Inhibition of xanthine oxidase (unknown origin) using xanthine as substrate preincubated for 15 mins followed by substrate addition by UV spectrophotometric analysis

T1 sequence (P47989 whole entry): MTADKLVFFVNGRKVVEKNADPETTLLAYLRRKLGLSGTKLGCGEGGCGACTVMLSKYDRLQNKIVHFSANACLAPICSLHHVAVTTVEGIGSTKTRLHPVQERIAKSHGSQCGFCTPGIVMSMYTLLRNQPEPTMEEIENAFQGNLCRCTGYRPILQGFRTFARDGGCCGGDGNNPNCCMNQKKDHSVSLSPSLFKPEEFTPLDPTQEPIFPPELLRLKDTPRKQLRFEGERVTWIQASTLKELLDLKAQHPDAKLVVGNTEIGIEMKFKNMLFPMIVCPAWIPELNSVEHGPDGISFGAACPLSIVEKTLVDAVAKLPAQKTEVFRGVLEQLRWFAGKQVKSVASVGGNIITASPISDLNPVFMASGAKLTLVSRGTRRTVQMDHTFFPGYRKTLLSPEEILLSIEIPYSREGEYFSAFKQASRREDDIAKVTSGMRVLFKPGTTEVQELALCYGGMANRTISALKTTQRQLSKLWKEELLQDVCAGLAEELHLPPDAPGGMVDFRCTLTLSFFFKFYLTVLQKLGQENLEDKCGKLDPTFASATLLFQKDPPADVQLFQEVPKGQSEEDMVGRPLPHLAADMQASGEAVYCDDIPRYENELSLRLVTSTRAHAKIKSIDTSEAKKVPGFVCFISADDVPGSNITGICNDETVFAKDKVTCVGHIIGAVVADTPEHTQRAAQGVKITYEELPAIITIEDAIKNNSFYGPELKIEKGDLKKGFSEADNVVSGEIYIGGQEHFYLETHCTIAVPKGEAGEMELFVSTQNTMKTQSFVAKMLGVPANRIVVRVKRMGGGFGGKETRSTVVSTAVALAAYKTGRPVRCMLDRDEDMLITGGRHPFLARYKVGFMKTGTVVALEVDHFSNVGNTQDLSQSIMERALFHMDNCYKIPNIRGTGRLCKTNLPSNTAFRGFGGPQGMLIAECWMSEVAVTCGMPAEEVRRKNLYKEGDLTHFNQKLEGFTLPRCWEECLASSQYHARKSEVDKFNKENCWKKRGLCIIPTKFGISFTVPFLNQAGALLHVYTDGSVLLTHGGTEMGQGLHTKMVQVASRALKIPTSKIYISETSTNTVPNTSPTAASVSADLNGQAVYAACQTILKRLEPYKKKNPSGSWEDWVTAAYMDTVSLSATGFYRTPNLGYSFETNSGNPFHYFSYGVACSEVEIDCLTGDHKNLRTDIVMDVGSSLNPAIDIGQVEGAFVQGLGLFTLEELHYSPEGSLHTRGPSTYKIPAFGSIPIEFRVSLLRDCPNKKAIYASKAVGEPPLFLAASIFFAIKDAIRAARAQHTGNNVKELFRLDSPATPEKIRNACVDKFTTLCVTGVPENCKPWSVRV

| Compound | Activity (Rattus norvegicus) | pKi [1] | pIC50 [2] |
| --- | --- | --- | --- |
| CC(C)Oc1ccc(-c2ncc3c(=O)[nH][nH]c3n2)cc1C#N | Active |  |  |
| CC(C)Oc1ccc(-c2nccc(C(=O)O)n2)cc1C#N | Active |  |  |
| Cc1nc(-c2ccc(OCC(C)C)c(C#N)c2)sc1C(=O)O [FEBUXOSTAT] |  | 9.05 | 7.55 |
